# Data as given in patent publication US20120071475A1, “UREA DERIVATIVES HAVING PI3K-INHIBITING ACTIVITY” (SHIONOGI & CO., LTD., priority 2009, published 2012).
# Read-outs that look alike come from different tables or passages of the source.
# What was measured:
# PI3Kδ = PI3Kδ (Homo sapiens, UniProt O00329); experiment: PI3Kδ inhibitory activity (Ki value); assay type: biochemical
# Protocol: According to Example 2 above, after 80 μg/mL PI-3 kinase γ of the enzyme solution (80 μg/mL PI-3 kinase γ, 10 mmol/L MgCl2, 5 mmol/L DTT) was changed to 158 μg/mL PI-3 kinase δ, a method similar to the method for measuring PI3Kγ inhibitory activity was used to calculate an inhibition ratio, which was defined as the PI3Kδ inhibitory activity.
# According to Example 4 above, a Km value for PI3Kδ was determined to calculate a Ki value.
# CYP3A4 = biological target: T1, CYP3A4 (Homo sapiens, UniProt P08684); experiment: CYP3A4 fluorescence MBI test; assay type: in vitro ADME; settings: difference in IC50 with 0 or 30 minutes pre-reaction; CYP3A4 expressed in E. coli, substrate 7-BFC
# T1 construct: host or cells: E. coli
# T1 sequence (P08684 whole entry): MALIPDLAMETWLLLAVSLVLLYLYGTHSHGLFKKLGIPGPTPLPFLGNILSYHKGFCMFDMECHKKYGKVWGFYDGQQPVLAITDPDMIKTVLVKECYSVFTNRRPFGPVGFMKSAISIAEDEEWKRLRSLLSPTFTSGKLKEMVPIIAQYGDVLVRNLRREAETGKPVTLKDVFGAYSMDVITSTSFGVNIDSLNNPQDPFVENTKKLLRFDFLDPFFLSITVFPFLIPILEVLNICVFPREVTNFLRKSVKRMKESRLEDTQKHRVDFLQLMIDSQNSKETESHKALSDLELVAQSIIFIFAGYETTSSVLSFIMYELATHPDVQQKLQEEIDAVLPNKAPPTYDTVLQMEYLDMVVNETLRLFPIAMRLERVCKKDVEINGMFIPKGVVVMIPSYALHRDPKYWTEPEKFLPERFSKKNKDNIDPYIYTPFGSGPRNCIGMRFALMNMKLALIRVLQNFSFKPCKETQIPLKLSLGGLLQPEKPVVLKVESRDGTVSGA
# How it was run: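 E. coli-expressed CYP3A4 debenzylating 5.6 μmol/L 7-BFC to fluorescent 7-HFC (Ex 420/Em 535 nm) in K-Pi pH 7.4 at 25° C, 15 min reaction. NADPH pre-incubation of 0 or 30 min, with 10-fold dilution before reaction. IC50 from 0.625–20 μmol/L (6 points); (+) for an IC50 shift ≥5 μmol/L, (−) for ≤3 μmol/L.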
# [1] = BA test (oral absorbability, bioavailability); assay type: in vivo
# Protocol: An experimental material and a method for examining oral absorbability
# (1) Animals used: rats or mice were used. (2) Breeding condition: chow and sterilized tap water were allowed to be taken in freely. (3) Setting of a dosage and grouping: a predetermined dosage was administered orally or intravenously. Groups were formed as shown below. (A dosage varied depending on each compound)
# Oral administration 1-30 mg/kg (n=2 to 3)
# Intravenous administration 0.5-10 mg/kg (n=2 to 3)
# (4) Preparation of administered liquid: In oral administration, a solution or suspension was administered. In intravenous administration, after solubilization, the administration was performed. (5) Method of Administration: In oral administration, compulsory administration to the stomach was conducted using an oral probe. In intravenous administration, administration from the caudal vein was conducted using a syringe with an injection needle. (6) Evaluation item: Blood was chronologically collected, and then the drug concentration in blood plasma was measured using a LC/MS/MS. (7) Statistical analysis: With regard to a shift in plasma concentration, the plasma concentration-time area under the curve (AUC) was calculated using a nonlinear least-squares program WinNonlin®. Bioavailability (BA) was calculated from the AUCs of the oral administration group and the intravenous administration group, respectively.
# [2] = biological target: T2, human ether-a-go-go related gene (hERG) channel (Homo sapiens, UniProt Q12809); experiment: hERG test (whole-cell patch-clamp, IKr in HEK293 cells); assay type: cell-based; settings: inhibition of maximum tail current (IKr), HEK293 cell expressing hERG, compound 1 μM, 10 minutes; 1 µM
# T2 construct: expressed in transfected cells; host or cells: HEK293
# T2 sequence (Q12809 whole entry): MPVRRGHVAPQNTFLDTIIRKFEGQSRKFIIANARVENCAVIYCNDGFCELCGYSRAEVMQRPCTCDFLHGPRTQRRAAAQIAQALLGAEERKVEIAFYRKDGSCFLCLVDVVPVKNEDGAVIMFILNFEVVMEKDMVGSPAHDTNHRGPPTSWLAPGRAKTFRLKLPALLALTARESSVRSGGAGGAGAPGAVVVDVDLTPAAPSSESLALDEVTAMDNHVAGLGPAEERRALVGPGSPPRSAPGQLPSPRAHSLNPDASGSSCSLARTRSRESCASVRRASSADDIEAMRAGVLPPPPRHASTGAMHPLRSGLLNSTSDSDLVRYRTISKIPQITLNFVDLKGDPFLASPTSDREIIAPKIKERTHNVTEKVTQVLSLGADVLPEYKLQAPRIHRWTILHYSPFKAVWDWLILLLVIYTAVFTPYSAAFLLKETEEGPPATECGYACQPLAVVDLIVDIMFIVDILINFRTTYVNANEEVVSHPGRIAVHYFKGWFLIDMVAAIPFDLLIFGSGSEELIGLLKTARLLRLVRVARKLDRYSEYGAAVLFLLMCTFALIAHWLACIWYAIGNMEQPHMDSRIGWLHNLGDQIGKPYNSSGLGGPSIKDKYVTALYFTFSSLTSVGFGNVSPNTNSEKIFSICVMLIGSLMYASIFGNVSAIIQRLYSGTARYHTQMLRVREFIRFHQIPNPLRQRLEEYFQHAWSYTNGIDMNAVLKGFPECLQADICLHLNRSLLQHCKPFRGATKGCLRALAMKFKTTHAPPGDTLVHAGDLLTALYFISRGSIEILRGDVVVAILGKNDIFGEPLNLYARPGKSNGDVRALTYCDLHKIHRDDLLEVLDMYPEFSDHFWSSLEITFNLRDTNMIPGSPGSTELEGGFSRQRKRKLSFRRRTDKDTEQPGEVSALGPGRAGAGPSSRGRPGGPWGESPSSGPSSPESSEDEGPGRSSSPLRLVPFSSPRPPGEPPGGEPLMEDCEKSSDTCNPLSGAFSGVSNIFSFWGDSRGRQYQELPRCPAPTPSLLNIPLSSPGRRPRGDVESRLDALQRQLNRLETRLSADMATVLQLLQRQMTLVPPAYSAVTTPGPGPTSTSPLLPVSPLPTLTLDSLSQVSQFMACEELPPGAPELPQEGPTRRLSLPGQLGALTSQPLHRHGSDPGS
# How it was run: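 hERG-expressing HEK293 cells, automated whole-cell patch clamp: hold −80 mV, +50 mV for 2 s, then −50 mV for 2 s to record IKr tail current. Compound in extracellular solution (pH 7.4) for 10 min at room temperature; inhibition of maximum tail current calculated versus pre-application and compared with 0.1% DMSO vehicle.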
# [3] = Solubility test (artificial intestinal juice pH 6.8, 1% DMSO); assay type: physicochemical; settings: artificial intestinal juice pH 6.8 with 1% DMSO, fassgf or other biorelevant, kinetic from dmso stock, 25° C.
# Protocol: The solubility of a compound was determined under a condition in which 1% DMSO was added. 10 mmol/L compound solution was prepared using DMSO, and then 6 μL of the compound solution was added to 594 μL of artificial intestinal juice in pH 6.8 (to 250 mL of 0.2 mol/L potassium dihydrogen phosphate reagent solution was added 118 mL of 0.2 mol/L NaOH reagent solution and water to provide a final volume of 1000 mL). After standing at 25° C. for 16 hours, the mixed solution was filtered with suction. The filtrate was diluted twice with methanol/water (1/1), and then a concentration in the filtration was measured with HPLC or LC/MS/MS by the absolute calibration method.
# [4] = class symbols, read-out: PI3K δ Ki
# Sequence of PI3Kδ (O00329 whole entry, species assumed): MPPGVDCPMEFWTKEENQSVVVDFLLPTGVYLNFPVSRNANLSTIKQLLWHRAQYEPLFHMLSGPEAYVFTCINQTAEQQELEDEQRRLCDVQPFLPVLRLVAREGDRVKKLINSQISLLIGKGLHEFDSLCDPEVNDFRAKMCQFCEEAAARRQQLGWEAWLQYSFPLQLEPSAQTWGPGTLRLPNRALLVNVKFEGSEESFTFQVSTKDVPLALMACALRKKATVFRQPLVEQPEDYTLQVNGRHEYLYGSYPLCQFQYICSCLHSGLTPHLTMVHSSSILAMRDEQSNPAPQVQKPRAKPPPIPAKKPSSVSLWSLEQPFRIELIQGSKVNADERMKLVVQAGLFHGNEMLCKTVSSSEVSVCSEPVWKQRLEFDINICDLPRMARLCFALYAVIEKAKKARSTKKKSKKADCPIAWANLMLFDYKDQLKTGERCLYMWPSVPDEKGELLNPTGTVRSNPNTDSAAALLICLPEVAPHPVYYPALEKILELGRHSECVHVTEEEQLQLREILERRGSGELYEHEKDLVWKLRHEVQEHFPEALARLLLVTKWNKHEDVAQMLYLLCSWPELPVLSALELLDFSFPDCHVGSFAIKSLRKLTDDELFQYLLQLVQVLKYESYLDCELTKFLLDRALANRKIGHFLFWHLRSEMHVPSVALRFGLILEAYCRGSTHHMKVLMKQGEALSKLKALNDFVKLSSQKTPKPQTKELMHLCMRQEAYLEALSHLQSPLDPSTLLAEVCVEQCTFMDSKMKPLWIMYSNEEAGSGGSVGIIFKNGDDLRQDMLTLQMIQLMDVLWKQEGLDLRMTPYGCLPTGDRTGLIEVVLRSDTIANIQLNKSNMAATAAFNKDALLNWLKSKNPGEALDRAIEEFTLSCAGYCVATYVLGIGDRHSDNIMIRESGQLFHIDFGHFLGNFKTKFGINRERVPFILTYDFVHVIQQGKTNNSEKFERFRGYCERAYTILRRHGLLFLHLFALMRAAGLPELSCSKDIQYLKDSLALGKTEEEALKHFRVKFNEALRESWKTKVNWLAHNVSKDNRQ
# Sequence of PI3Kδ (P27986 whole entry partner, species assumed): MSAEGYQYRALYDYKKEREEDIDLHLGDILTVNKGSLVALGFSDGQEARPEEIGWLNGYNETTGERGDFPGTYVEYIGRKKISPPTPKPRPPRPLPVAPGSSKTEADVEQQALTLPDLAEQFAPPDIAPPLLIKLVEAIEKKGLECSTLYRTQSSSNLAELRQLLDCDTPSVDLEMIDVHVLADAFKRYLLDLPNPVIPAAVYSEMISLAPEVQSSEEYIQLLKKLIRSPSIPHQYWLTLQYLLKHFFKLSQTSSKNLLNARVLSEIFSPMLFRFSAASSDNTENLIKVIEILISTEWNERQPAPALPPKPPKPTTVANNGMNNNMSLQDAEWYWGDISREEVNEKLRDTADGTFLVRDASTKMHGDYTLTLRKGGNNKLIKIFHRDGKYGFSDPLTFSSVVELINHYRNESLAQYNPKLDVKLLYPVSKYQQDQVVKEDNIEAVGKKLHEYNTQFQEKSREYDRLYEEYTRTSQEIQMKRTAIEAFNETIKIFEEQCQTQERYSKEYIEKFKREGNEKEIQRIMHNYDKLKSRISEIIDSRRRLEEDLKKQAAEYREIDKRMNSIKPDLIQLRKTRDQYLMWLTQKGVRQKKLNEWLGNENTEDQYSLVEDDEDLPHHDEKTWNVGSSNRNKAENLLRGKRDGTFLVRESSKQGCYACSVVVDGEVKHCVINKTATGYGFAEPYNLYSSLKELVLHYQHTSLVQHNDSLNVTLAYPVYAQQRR
SMILES,Ki (PI3Kδ; [4]),MBI (CYP3A4),other results
COc1cc(N2CCc3nc(NC(=O)Nc4ccccc4C(=O)NC(C)C)sc3C2)nc(OC)n1 [Compound I-12],≤ 3000 nM,"(−) (When 3 μmol/L or less, the compound is shown as (−))","Ki (PI3Kδ; read-out: PI3Kδ Ki value): 590 nM; BA (Rat, 1 mg/kg, Methylcellulose suspension Oral Administration) [1]: 46.8%"
COc1cc(N2CCc3nc(NC(=O)Nc4ccccc4C(=O)NCCF)sc3C2)nc(OC)n1 [Compound I-88],–,"(−) (When 3 μmol/L or less, the compound is shown as (−))",–
COc1nc(Cl)cc(N2CCc3nc(NC(=O)Nc4cnccc4C(=O)NC(C)C)sc3C2)n1 [Compound I-91],≤ 3000 nM,"(−) (When 3 μmol/L or less, the compound is shown as (−))",–
COc1cc(N2CCc3nc(NC(=O)Nc4ccccc4C(=O)NC(C)C(O)C(F)(F)F)sc3C2)nc(OC)n1 (centres unmarked) [Compound I-139],–,"(−) (When 3 μmol/L or less, the compound is shown as (−))",hERG(at 1 μM) % Inhibition [2]: 8.5%
COc1cc(N2CCc3nc(NC(=O)Nc4cn(C)nc4C(=O)NCC(F)(F)F)sc3C2)nc(OC)n1 [Compound I-148],≤ 300 nM,–,"BA (Rat, 1 mg/kg, Methylcellulose suspension Oral Administration) [1]: 45.1%"
Cc1nc(NC(=O)Nc2ccccc2C(=O)NC(C)C)sc1-c1csc(S(=O)(=O)N(C)CCN(C)C)c1 [Compound I-191],–,–,solubility at 16 h [3]: > 50 µM
COc1cc(N2CCc3nc(NC(=O)Nc4ccccc4C(=O)NN4CCN(C)CC4)sc3C2)nc(OC)n1 [Compound I-195],–,"(−) (When 3 μmol/L or less, the compound is shown as (−))",solubility at 16 h [3]: > 50 µM
COc1nc(Cl)cc(N2CCc3nc(NC(=O)Nc4ccccc4C(=O)NC4CCCOC4)sc3C2)n1 (centres unmarked) [Compound I-197],> 3000 nM,–,–
CC(C)NC(=O)c1ccccc1NC(=O)Nc1nc2c(s1)CN(c1cccc(S(C)(=O)=O)c1)CC2 [Compound I-198],–,–,solubility at 16 h [3]: 10.1 µM
C[C@@H](CO)NC(=O)c1ccccc1NC(=O)Nc1nc2c(s1)CN(c1cncc(S(C)(=O)=O)c1)CC2 [Compound I-211],–,"(−) (When 3 μmol/L or less, the compound is shown as (−))",–

# The next lines start with results.
Ki (PI3Kδ; [4]),SMILES,MBI (CYP3A4),other results
≤ 3000 nM,COc1cncc(-c2ccc3nc(NC(=O)Nc4ccccc4OCCC(C)C)cn3n2)c1 [Compound I-114],"(−) (When 3 μmol/L or less, the compound is shown as (−))",Ki (PI3Kδ; read-out: PI3Kδ Ki value): 2000 nM
≤ 300 nM,Cc1nc(NC(=O)Nc2ccccc2C(=O)NC(C)C)sc1-c1ccc(S(C)(=O)=O)c(F)c1 [Compound I-127],–,Ki (PI3Kδ; read-out: PI3Kδ Ki value): 81 nM
> 3000 nM,CC(C)NC(=O)c1ccccc1NC(=O)Nc1nc2c(s1)CN(c1cncc(C(F)(F)F)c1)CC2 [Compound I-131],"(−) (When 3 μmol/L or less, the compound is shown as (−))",–
≤ 3000 nM,COc1cncc(-c2cc(NC(=O)Nc3ccccc3C(=O)NC(C)C)nn2C)c1 [Compound I-226],"(−) (When 3 μmol/L or less, the compound is shown as (−))",–
